# In PubChem BioAssay (NCI):
# “And” between values parts separate entries of the source, which are not always exact repeats. Equal entries are not always repeated.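 A five-concentration, 48-hour dose response in 96-well plates underlies each endpoint, interpolated linearly between surrounding concentrations. GI50 is the concentration that inhibits growth by half. The concentration for full growth arrest is given as TGI.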
# Columns and labels:
# Experiment in all cases: NCI tumour cell line growth inhibition, 48 h
# K-562 leukemia = test system: K-562 leukemia
# M14 melanoma = test system: M14 melanoma
# UACC-257 melanoma = test system: UACC-257 melanoma
# HS 578T breast = test system: HS 578T breast
# NCI-H23 lung = test system: NCI-H23 lung
# SK-MEL-28 melanoma = test system: SK-MEL-28 melanoma
# IGROV1 ovarian = test system: IGROV1 ovarian
# HT29 colon = test system: HT29 colon
# HOP-62 NSCLC = test system: HOP-62 NSCLC
# OVCAR-4 ovarian = test system: OVCAR-4 ovarian
Structure (SMILES),GI50 (K-562 leukemia),TGI (K-562 leukemia),GI50 (M14 melanoma),TGI (M14 melanoma),GI50 (UACC-257 melanoma),TGI (UACC-257 melanoma),GI50 (HS 578T breast),TGI (HS 578T breast),GI50 (NCI-H23 lung),TGI (NCI-H23 lung),GI50 (SK-MEL-28 melanoma),TGI (SK-MEL-28 melanoma),GI50 (IGROV1 ovarian),TGI (IGROV1 ovarian),GI50 (HT29 colon),TGI (HT29 colon),GI50 (HOP-62 NSCLC),TGI (HOP-62 NSCLC),GI50 (OVCAR-4 ovarian),TGI (OVCAR-4 ovarian)
COC(=O)c1c(C(=O)O)c(-c2ccccc2)c(-c2ccccc2)c(-c2ccccc2)c1-c1ccccc1,87 µM,> 100 µM,> 100 µM,> 100 µM,> 100 µM,> 100 µM,> 100 µM,> 100 µM,> 100 µM,> 100 µM,93.4 µM,> 100 µM,> 100 µM,> 100 µM,> 100 µM,> 100 µM,> 100 µM,> 100 µM,,
COC(=O)N[C@@H](C)CNc1nccc(-c2cn(C(C)C)nc2-c2cc(Cl)cc(NS(C)(=O)=O)c2F)n1,33.6 µM,> 100 µM,< 0.01 µM,,,,0.599 µM,> 100 µM,> 51.3 µM,> 100 µM,,,0.678 µM,> 100 µM,< 0.01 µM,> 100 µM,> 100 µM,> 100 µM,> 100 µM,> 100 µM
CSC(=S)NCc1cn(C)c2ccccc12,,,64.8 µM,> 100 µM,54.8 µM,> 100 µM,26.3 µM,73.6 µM,29.8 µM,87.7 µM,> 100 µM,> 100 µM,26.1 µM,> 100 µM,65.3 µM,> 100 µM,49.4 µM,> 100 µM,62 µM,> 100 µM
CCOC(=O)/C=C/c1ccc([N+](=O)[O-])o1,2.97 µM,12.9 µM,2.71 µM,8.74 µM,2.74 µM,11.4 µM,5.74 µM,53.9 µM,4.12 µM,18.4 µM,2.08 µM,5.07 µM,10.9 µM,24.8 µM,3.71 µM,15.1 µM,,,4.93 µM,20.4 µM
C[C@]12CCC3c4ccc(O)cc4CCC3C1CC[C@@H]2NC(=O)/C=C/c1ccc(O)c(O)c1 (stereo partly drawn),6.51 µM,55.4 µM,10.6 µM,22.9 µM,,,15.4 µM,> 100 µM,11.8 µM,28.5 µM,9.59 µM,24.5 µM,12.1 µM,32.2 µM,3.97 µM,15.4 µM,16.1 µM,35.9 µM,5.94 µM,24.7 µM
CCCC(=O)Nc1cc(/C=C/C(=O)N2C[C@@H]3C[C@]34C2=CC(=O)c2[nH]cc(C)c24)n(C)c1,,25 µM,0.0672 µM,1.55 µM and 0.22 µM,,,0.143 µM,1.96 µM and 0.55 µM,0.0119 µM,0.645 µM and 0.0939 µM,,1.6 µM,,25 µM,,2.77 µM,,25 µM,0.18 µM,1.43 µM and 0.474 µM
OC(Cc1cccc2ccccc12)CN1CCC(c2ccccc2)CC1 (stereo not drawn),,38.1 µM,,28.7 µM,,18.8 µM,,32.4 µM,,30.8 µM,,26.8 µM,,,,25.8 µM,,30.2 µM,,
COc1cc(C2CC(c3ccc(Cl)cc3)=NN2C(C)=O)ccc1Oc1ccnc2cc(Cl)ccc12 (stereo not drawn),> 100 µM,> 100 µM,> 100 µM,> 100 µM,> 100 µM,> 100 µM,2.94 µM,> 100 µM,,,,,> 100 µM,> 100 µM,,,,,,
